Source: patent US20250381168A1, “VLA4 INHIBITORS AND USES THEREOF” (Washington University, priority 2022, published 2025)
Entries after “also recorded” stand apart in the source; their conditions may differ. Read-outs that look alike come from different tables or passages of the source.

Tests used:
integrin a4b7 = integrin a4b7 (Homo sapiens (Human), UniProt P13612+P26010); assay: a4b7 solid phase receptor assay (SPRA); conditions: recombinant human a4b7 binding to plate-coated human VCAM1 (TABLE 4)
Chain of integrin a4b7 (P13612 34-970): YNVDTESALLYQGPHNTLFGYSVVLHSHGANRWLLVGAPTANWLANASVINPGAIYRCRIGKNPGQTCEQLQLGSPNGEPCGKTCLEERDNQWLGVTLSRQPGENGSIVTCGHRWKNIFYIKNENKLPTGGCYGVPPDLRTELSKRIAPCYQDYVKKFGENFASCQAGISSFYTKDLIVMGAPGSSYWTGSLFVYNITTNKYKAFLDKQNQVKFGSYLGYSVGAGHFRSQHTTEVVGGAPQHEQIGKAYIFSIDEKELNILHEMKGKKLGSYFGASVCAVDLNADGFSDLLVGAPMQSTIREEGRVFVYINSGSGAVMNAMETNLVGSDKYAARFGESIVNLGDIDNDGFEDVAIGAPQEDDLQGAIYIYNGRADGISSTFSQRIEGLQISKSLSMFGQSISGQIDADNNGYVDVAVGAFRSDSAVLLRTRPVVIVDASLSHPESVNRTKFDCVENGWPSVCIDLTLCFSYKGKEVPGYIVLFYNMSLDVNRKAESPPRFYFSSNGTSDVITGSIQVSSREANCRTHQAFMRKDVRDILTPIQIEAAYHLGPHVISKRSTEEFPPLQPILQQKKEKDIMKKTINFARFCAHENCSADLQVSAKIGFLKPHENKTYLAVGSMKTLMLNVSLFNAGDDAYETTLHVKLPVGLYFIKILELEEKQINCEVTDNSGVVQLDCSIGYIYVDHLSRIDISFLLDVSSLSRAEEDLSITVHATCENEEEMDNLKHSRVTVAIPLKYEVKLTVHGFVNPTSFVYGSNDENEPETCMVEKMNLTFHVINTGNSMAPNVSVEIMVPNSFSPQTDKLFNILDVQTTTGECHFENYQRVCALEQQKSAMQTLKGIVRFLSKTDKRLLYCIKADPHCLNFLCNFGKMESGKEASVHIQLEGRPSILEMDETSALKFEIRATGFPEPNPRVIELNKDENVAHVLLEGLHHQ
Chain of integrin a4b7 (P26010 20-723): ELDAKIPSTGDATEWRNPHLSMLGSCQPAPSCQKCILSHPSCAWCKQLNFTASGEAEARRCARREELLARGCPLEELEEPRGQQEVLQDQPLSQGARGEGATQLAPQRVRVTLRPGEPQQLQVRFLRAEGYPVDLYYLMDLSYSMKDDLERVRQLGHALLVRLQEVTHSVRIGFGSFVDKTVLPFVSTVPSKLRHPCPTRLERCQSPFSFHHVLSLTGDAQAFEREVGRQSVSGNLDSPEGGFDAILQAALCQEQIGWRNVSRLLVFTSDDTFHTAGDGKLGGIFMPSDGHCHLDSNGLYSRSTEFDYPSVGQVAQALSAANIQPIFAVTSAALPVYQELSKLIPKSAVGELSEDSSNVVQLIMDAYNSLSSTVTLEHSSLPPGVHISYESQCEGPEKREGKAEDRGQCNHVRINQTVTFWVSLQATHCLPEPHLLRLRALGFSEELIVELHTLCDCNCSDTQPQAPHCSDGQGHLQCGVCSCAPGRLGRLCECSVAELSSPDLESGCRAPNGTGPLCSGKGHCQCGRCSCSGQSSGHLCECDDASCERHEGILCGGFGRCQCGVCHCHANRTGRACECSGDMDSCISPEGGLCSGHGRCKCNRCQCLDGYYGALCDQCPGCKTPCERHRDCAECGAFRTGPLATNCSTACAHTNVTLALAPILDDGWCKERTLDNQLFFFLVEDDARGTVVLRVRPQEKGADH
Description: Wells were washed 3 times with TBS+ and blocking buffer (TBS+ with 1% bovine serum albumin), the plate was incubated for 1 hr at 37° C., and then washed 3× with TBS+ buffer. Recombinant human a4b7 (R & D Systems) was diluted to 1 μg/ml in TBS+/0.1% bovine serum albumin. Test compounds were diluted into the integrin solution and added to the washed ligand-coated plate according to a standard template with each sample repeated in triplicate. After incubation for 2 hr at room temperature, the plate was washed 3× with 150 μl of TBS+ buffer. To each well, biotinylated anti-A4 antibody (R & D Systems) at 1 μg/ml in TBS+/0.1% BSA was added and the plate covered and incubated for 1 hr at room temperature. After washing the plate 3× with TBS+ buffer, streptavidin-conjugated horseradish peroxidase (R & D Systems) diluted in TBS+ blocking buffer was added to the wells and the plate incubated for 20 min at room temperature. The plate was washed 3× with TBS+ buffer followed by addition of 50 μl of TMB substrate (Sigma T4444). After incubation for 20 min at room temperature, plates were stopped with TMB stop solution (Sigma S5689) by colorimetric detection at 450 nm wavelength using a Tecan Safire II plate reader.

VLA-4 (a4b1) = VLA-4 (a4b1) (Homo sapiens (Human), UniProt P05556+P13612); assay: sVCAM flow cytometry cell-based assay (inhibition of soluble VCAM-1 binding to G2 ALL cells);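 further: compounds at 0.1 to 1000 nM preincubated 30 min with G2 ALL cells, then VCAM/Fc added for 30 min, bound VCAM-1 detected by PE secondary antibody, percent binding cells by flow cytometry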
Chain of VLA-4 (a4b1) (P13612 34-1032): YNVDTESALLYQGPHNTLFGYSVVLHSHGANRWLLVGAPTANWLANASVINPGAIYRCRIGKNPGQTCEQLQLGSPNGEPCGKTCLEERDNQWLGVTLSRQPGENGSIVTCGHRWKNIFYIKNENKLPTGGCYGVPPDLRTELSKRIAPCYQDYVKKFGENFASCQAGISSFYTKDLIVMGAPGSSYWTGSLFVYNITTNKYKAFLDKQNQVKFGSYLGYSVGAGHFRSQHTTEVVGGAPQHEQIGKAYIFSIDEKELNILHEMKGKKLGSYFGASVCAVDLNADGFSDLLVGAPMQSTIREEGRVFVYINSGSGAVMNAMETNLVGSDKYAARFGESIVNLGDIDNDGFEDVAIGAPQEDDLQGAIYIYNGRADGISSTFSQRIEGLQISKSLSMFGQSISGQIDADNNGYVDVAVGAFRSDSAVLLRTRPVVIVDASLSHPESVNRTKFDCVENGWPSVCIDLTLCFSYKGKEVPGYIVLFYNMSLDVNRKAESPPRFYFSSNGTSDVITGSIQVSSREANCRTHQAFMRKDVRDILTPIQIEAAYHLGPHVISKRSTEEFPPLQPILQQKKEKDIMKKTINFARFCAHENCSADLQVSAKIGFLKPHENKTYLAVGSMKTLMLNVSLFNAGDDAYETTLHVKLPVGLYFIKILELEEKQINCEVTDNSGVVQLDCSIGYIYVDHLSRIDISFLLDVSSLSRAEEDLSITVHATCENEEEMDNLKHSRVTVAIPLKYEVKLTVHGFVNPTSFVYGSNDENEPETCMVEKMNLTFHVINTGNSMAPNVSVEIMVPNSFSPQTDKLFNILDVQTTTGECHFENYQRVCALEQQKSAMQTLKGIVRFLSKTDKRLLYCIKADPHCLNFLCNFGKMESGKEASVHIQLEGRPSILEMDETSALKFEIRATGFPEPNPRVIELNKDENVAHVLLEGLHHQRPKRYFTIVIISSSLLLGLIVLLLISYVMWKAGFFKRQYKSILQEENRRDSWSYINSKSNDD
Chain of VLA-4 (a4b1) (P05556 21-798): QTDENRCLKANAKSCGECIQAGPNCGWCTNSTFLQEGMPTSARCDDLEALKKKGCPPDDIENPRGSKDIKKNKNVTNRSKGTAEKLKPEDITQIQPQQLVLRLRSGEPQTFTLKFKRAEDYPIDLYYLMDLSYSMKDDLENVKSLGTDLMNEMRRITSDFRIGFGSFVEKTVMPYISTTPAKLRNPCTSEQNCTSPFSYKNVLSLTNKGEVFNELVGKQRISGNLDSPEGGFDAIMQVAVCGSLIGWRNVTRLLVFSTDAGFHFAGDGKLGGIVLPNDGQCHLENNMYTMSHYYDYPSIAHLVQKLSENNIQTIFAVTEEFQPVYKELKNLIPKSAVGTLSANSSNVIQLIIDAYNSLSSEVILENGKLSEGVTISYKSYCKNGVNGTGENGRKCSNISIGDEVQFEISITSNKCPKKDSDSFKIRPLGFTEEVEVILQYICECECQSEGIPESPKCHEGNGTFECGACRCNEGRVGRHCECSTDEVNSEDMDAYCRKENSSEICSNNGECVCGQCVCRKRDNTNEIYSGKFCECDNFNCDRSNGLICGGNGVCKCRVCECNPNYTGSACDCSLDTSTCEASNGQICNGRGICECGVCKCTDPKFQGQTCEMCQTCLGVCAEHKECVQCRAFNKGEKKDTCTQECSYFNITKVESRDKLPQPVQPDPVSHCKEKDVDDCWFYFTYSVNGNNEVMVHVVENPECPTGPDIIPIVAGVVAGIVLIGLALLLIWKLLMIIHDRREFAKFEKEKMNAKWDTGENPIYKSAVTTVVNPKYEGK
Description: VLA-4 (a4b1) inhibitor compounds were tested for their ability to inhibit the binding of soluble VCAM-1 to human G2 acute lymphoblastic leukemia (ALL) cells. Briefly, G2 ALL cells are pre-incubated with increasing concentrations (0.1 to 1000 nM) of compounds for 30 minutes. Soluble VCAM/Fc chimera protein (R & D systems) is then added to the mixture and the cells incubated for an additional 30 minutes. Afterwards, cells are washed and VCAM-1 is detected using a PE-conjugated secondary polyclonal antibody. In each experiment, an aliquot of cells are stained with isotype control antibodies to serve as a negative control. The percentage of VCAM-1 binding cells was then determined by flow cytometry.

[1] = tested on: hematopoietic stem/progenitor cells (HSPCs); assay: HSPC mobilization into peripheral blood, colony forming unit (CFU) assay; on HSPC mobilization, result in words: test concentration or dose not given here; on No. CFU (×10^3)/mL ± SD, 6 hr: test concentration or dose not given here; conditions: mice; for No. CFU (x10^3)/mL ± SD, 2 hr / No. CFU (x10^3)/mL ± SD, 4 hr / No. CFU (x10^3)/mL ± SD, 6 hr / No. CFU (x10^3)/mL ± SD, 8 hr: single injection; for No. CFU (x10^3)/mL ± SD, 2 hr: 2 hr post dose (TABLE 12); for No. CFU (x10^3)/mL ± SD, 4 hr: 4 hr post dose (TABLE 12); for No. CFU (x10^3)/mL ± SD, 6 hr: 6 hr post dose (TABLE 12); for No. CFU (x10^3)/mL ± SD, 8 hr: 8 hr post dose (TABLE 12)
[2] = as listed in TABLE 12, read-out: sVCAM IC50
[3] = inhibition of sVCAM-1 binding to human G2 ALL cells (TABLE 3), read-out: SVCAM-1, IC50

Which IC50 (integrin a4b7) does the source give for `COc1cccc(OC)c1-c1ccc(C[C@H](CC(=O)c2c(Cl)cc(C(=O)O)cc2Cl)C(=O)O)cc1` [Example C1] here?
The IC50 was 1.1 nM.

What about the IC50 (VLA-4 (a4b1); as listed in TABLE 5, read-out: sVCAM IC50) of the same compound?
Its IC50 is 4.9 nM.

What about the IC50 (VLA-4 (a4b1); as listed in TABLE 7, read-out: sVCAM IC50) of the same compound?
The IC50 was 4.9 nM.

And the IC50 (VLA-4 (a4b1); [2])?
Its IC50 is 4.9 nM.

What about the IC50 (VLA-4 (a4b1); as listed in TABLE 20, read-out: sVCAM IC50) of the same compound?
The IC50 was 4.9 nM.

And the IC50 (VLA-4 (a4b1); [3])?
Its IC50 is 4.98 nM.

And the “time to which HSPC mobilization is extended after a single dose” value [1]?
The value was at most 2 h.

And the “HSPC mobilization, result in words” value ([1]; single dose)?
Its value is “have returned to baseline”.

And the “No. CFU (×10^3)/mL ± SD, 0.5 hr” value ([1]; single dose, peripheral blood, 0.5 hr post dose (TABLE 7))?
Its value is 0.96 ± 0.33 (×10^3)/mL.

And the “No. CFU (×10^3)/mL ± SD, 1 hr” value ([1]; single dose, peripheral blood, 1 hr post dose (TABLE 20))?
The value was 2.16 ± 1.22 (×10^3)/mL.

What about the “No. CFU (×10^3)/mL ± SD, 2 hr” value ([1]; single dose, peripheral blood, 2 hr post dose (TABLE 7)) of the same compound?
Its value is 0.33 ± 0.14 (×10^3)/mL.

And the “No. CFU (×10^3)/mL ± SD, 4 hr” value ([1]; single dose, peripheral blood, 4 hr post dose (TABLE 7))?
Its value is 0.08 ± 0.04 (×10^3)/mL.

And the “No. CFU (×10^3)/mL ± SD, 4 hr” value ([1]; single dose, peripheral blood, 4 hr post dose (TABLE 20))?
The value was 0.26 ± 0.18 (×10^3)/mL.

What about the “No. CFU (×10^3)/mL ± SD, 8 hr” value ([1]; single dose, peripheral blood, 8 hr post dose (TABLE 20)) of the same compound?
Its value is 0.13 ± 0.10 (×10^3)/mL.

And the “HSPC mobilization, result in words” value ([1]; single dose, listed as Comparator Compound 1)?
Its value is “returned to baseline by 4 hours”.

And the “No. CFU (x10^3)/mL ± SD, 2 hr” value ([1]; peripheral blood)?
The value was 0.67 ± 0.12 (x10^3)/mL.

What about the “No. CFU (x10^3)/mL ± SD, 4 hr” value ([1]; peripheral blood) of the same compound?
Its value is 0.42 ± 0.14 (x10^3)/mL.

And the “No. CFU (x10^3)/mL ± SD, 6 hr” value ([1]; peripheral blood)?
Its value is 0.26 ± 0.07 (x10^3)/mL.

What about the “No. CFU (x10^3)/mL ± SD, 8 hr” value ([1]; peripheral blood) of the same compound?
The value was 0.22 ± 0.02 (x10^3)/mL.

And the “No. CFU (×10^3)/mL ± SD, 0.25 hr” value ([1]; single s.c. injection, peripheral blood, 0.25 hr post dose (TABLE 5))?
Its value is 3.98 ± 1.09 (×10^3)/mL.

What about the “No. CFU (×10^3)/mL ± SD, 2 hr” value ([1]; single s.c. injection, peripheral blood, 2 hr post dose (TABLE 5)) of the same compound?
The value was 0.86 ± 0.25 (×10^3)/mL.

And the “No. CFU (×10^3)/mL ± SD, 4 hr” value ([1]; single s.c. injection, peripheral blood, 4 hr post dose (TABLE 5))?
Its value is 0.27 ± 0.20 (×10^3)/mL.

Which results are given for `COCCOCCOCCOCCOCCOCCOCCOCCOCCOCCOCCOCCOCCOCCOCCOCCOCCOCCOCCOCCOCCOCCOCCOCCOCc1cc(OC)c(-c2ccc(C[C@H](NC(=O)c3c(Cl)cc(C(=O)O)cc3Cl)C(=O)O)cc2)c(OC)c1` [Example C17, (S)-4-((1-carboxy-2-(2′,6′-dimethoxy-4′-(2,5,8,11,14,17,20,23,26,29,32,35,38,41,44,47,50,53,56,59,62,65,68,71,74-pentacosaoxapentaheptacontyl)-[1,1′-biphenyl]-4-yl)ethyl)carbamoyl)-3,5-dichlorobenzoic acid]?
IC50 (integrin a4b7): 1.5 nM; IC50 (VLA-4 (a4b1); as listed in TABLE 10, read-out: sVCAM IC50): 1.49 nM; IC50 (VLA-4 (a4b1); [2]): 1.49 nM; IC50 (VLA-4 (a4b1); as listed in TABLE 17, read-out: sVCAM IC50): 1.49 nM; IC50 (VLA-4 (a4b1); [3]): 1.49 nM; HSPC mobilization in the triple combination regimen with plerixafor and truncated Groβ [1]: does not extend mobilization out to 6 hours; time to which HSPC mobilization is extended after a single dose [1]: ≤ 2 h; No. CFU (×10^3)/mL ± SD, 2 hr ([1]; alone or in combination with Plerixafor and tGroβ, peripheral blood, 2 hr (TABLE 17)): 4.77 ± 1.21 (×10^3)/mL; No. CFU (×10^3)/mL ± SD, 4 hr ([1]; alone or in combination with Plerixafor and tGroβ, peripheral blood, 4 hr (TABLE 17)): 0.81 ± 0.26 (×10^3)/mL; No. CFU (×10^3)/mL ± SD, 6 hr ([1]; alone or in combination with Plerixafor and tGroβ, peripheral blood, 6 hr (TABLE 17)): 0.26 ± 0.13 (×10^3)/mL; HSPC mobilization, result in words ([1]; single dose): returning to baseline by 4 hours and no mobilization at 6 hours; also recorded: does not extend mobilization; also recorded: do not provide for extended mobilization; No. CFU (×10^3)/mL ± SD, 2 hr ([1]; single dose, peripheral blood, 2 hr post dose (TABLE 10)): 3.67 ± 1.09 (×10^3)/mL; No. CFU (×10^3)/mL ± SD, 4 hr ([1]; single dose, peripheral blood, 4 hr post dose (TABLE 10)): 0.57 ± 0.21 (×10^3)/mL; No. CFU (×10^3)/mL ± SD, 6 hr ([1]; single dose, peripheral blood, 6 hr post dose (TABLE 10)): 0.28 ± 0.17 (×10^3)/mL; No. CFU (x10^3)/mL ± SD, 2 hr ([1]; peripheral blood): 4.32 ± 1.23 (x10^3)/mL; No. CFU (x10^3)/mL ± SD, 4 hr ([1]; peripheral blood): 1.21 ± 0.40 (x10^3)/mL; No. CFU (x10^3)/mL ± SD, 6 hr ([1]; peripheral blood): 0.26 ± 0.07 (x10^3)/mL; No. CFU (x10^3)/mL ± SD, 8 hr ([1]; peripheral blood): 0.19 ± 0.09 (x10^3)/mL
